According to US20080069795A1, “Amelioration of Drug-Induced Toxicity” (The John Hopkins University, priority 2004, published 2008):

Legend:
[1] = test system: wild type, nu/nu, CD4-/- and CD8-/- mice; assay: Survival of mice after a single i.p. dose of cisplatin; type: in vivo, mouse; conditions: for survival rate: cisplatin 40 mg/kg i.p. single dose; for survival rate / survival: 72 hr
Description: All animal study protocols have been reviewed and approved by the Animal Care and Use Committee of Johns Hopkins University (IACUC), and all experiments were conducted according to NIH guidelines. T cell deficient athymic male mice (B6.Cg-Foxn1^nu, nu/nu) and their C57BL/6 wild type male littermates (6-8 wks, weighing 20-25 g) were purchased from The Jackson Laboratory (Bar Harbor, Me., USA). The two main defects of T cell deficient mice homozygous for the nu/nu spontaneous mutation (Foxn/nu, formerly Hfh11nu) are the abnormal hair growth and defective development of the thymus. Consequently, homozygous nu/nu mice lack T cells and cell-mediated immunity. Genetically matched wild type male littermates were used as controls and as donors of T cells adoptive transfer. CD4-deficient mice (B6.129S2-Cd4tm1Mak), CD8-deficient mice (B6.129S2-Cd8atm1Mak) and their wild type littermates were also purchased from The Jackson Laboratory. Mice were held under pathogen-free conditions in JHMI animal facility with air conditioning, 14 hr/10 hr of light and dark cycle and were free access to food and water during the experiments.
(§1) Cisplatin (cis-diammineplatinum II dichloride, Sigma-Aldrich, St.Louis, Mo.) was dissolved in 0.9% of saline at a concentration of 1 mg/ml. Mice were given a single i.p. injection either with cisplatin (40 mg/kg body weight) or with equal volume of saline. […] For kidney T cell immunohistochemical staining, three wild type mice in each group were sacrificed at 1 hr, 6 hr, 12 hr, 24 hr or 72 hr after cisplatin injection. All nu/nu or knockout mice and their littermates were sacrificed at 24 hr or 72 hr after the cisplatin administration for histology or for kidney cytokine array. All collected mice kidneys were either fixed in 10% buffered formalin for histology/immunohistochemistry, or snap frozen with liquid nitrogen for tissue cytokine array.
Data are expressed as mean±standard error of mean (SEM) and are compared by unpaired, two-tailed Student t tests for single comparison or by ANOVA Post Hoc test for multiple comparison. Kaplan-Meier analysis was used for mice survival analyses. Statistical significance of difference was defined when the P-value was less than 0.05.

[2] = test system: renal myeloperoxidase (MPO) activity; assay: Kidney myeloperoxidase assay after cisplatin; type: in vivo, mouse; conditions: 72 hr after cisplatin
Description: Renal myeloperoxidase (MPO) activity was measured as described by Laight et al. (18) in the nu/nu mice and wild type mice at 72 hr after receiving cisplatin to semi-quantify neutrophils and macrophages infiltration. Briefly, kidney tissue was homogenized in a solution containing 0.5% (wt/vol) hexadecyltrimethylammonium bromide dissolved in 50 mM potassium phosphate buffer (pH 6.0) and centrifuged for 30 min at 20,000 g at 4° C. Samples were incubated in a water bath at 60° C. for 2 hr and then centrifuged at 4,000 g for 12 min. The collected supernatant (40 μl) in each sample was incubated with 160 μl of a reaction solution containing 1.6 mM tetramethylbenzidine and 3 mM H2O2 diluted in 80 mM phosphate buffer (pH 5.4) in a 96-well microplate. The rate of change in absorbance at 630 nm over 5 min was measured spectrophotometrically. MPO activity was expressed as absorbance changed per minute per 100 mg of wet tissue.

patients = conditions: after a single dose of cisplatin; cited from earlier work
mice kidneys = assay: Histological examination, semi-quantitative renal tubular injury score after cisplatin; type: in vivo, mouse; conditions: 72 hr after cisplatin 40 mg/kg, scale 0-4
Description: as §1
Formalin-fixed paraffin-embedded sections of mice kidneys tissues were cut and stained with hematoxylin and eosin (H&E). Renal tubular injury was assessed using a semi-quantitative scale. A pathologist blinded to the experiments scored the degrees of tubular injury. The magnitude of tubular epithelial cell loss, necrosis, intra-tubular debris and tubular cast formation was scored into six levels based on the percentage of affected tubules in a high power field (HPF) under light microscope. (0: none; 0.5: <10%; 1: 10 to 25%; 2: 25 to 50%; 3: 50 to 75%; 4: >75%).

[3] = test system: wild type, nu/nu, CD4-/- and CD8-/- mice; assay: Assessment of renal function (serum creatinine) after cisplatin; type: in vivo, mouse
Description: as §1
Blood samples were obtained from mice tails prior to (0 hr) and at 24 hr, 48 hr and 72 hr after cisplatin injection. Serum creatinine was measured as a marker of renal dysfunction by a Roche Cobas Fara automated system (Roche, Nutley, N.J., USA) using a Creatinine 557 kit (Sigma Diagnostics, St. Louis, Mo., USA).

[4] = test system: CD3 positive cells in mice kidney; assay: Immunohistochemical staining of T cells (CD3) in post cisplatin kidneys; type: in vivo, mouse; conditions: wild type mice
Description: as §1
In order to evaluate T cell infiltrating into post cisplatin kidneys as a potential mechanism of action, immunohistochemical staining for T cell was performed on formalin-fixed kidney tissue. Briefly, after deparaffinization and rehydration, kidney sections were immersed in 3% hydrogen peroxide methanol for 5 minutes to block endogenous peroxidase. […] All cisplatin kidney sections were examined by a pathologist and a nephrologist in a blinded fashion, and CD3 positive cells were counted in at least 10 cortico-medulary fields.

[5] = test system: IL-1β, KC, IFN-γ and TNF-α in the mouse kidney; assay: Kidney cytokine protein array after cisplatin; type: in vivo
Description: as §1
In order to examine pro-inflammatory molecules generated by cisplatin, protein levels of IL-1β, IFN-γ, TNF-α and KC was measured in the mice kidney by using Bio-Rad Bio-Plex™ multiple cytokines array technique (Bio-Rad Laboratories Inc., Hercules, Calif.) described elsewhere in depth (19) with a simplified small template containing only above four cytokine/chemokines. Briefly, snap frozen kidney tissues were homogenized in a kit-attached cell-lysis buffer, and the homogenates were centrifuged at 12,000 rpm for 15 min at 4° C. Total protein concentration in each supernatant was determined by using a Bio-Rad Protein Assay I(it, and was adjusted to 500 μg/ml with the cell lysis buffer. Each sample was first incubated with a mixture of all types of micro-beads for 90 min at room temperature (RT) followed by an incubation with biotinylated detection antibodies for 30 min and then with a strepavidin-coupled phycoerythrin for 10 min (RT). Finally, the samples were subjected to a flow cytometric system. All acquired data was analyzed using Bio-Plex Manager™ 3.0 software (Bio-Rad) and corrected by total protein concentration (pg/mg protein).

[6] = wild type mice, 72 hr after cisplatin injection

## N.N.[Cl][Pt][Cl] [cisplatin, cis-diamminedichloroplatinum II]
[1]; C57BL/6 wild type littermates of nu/nu mice
  survival rate: 58%
[1]; CD4-/- mice, cisplatin 40 mg/kg i.p.
  survival: 100%
[1]; CD4 deficient mice, cisplatin 40 mg/kg i.p.
  mice died by 72 hr after cisplatin treatment: 0/6
[1]; CD8-/- mice, cisplatin 40 mg/kg i.p.
  survival: 80%
[1]; CD8 deficient mice, cisplatin 40 mg/kg i.p.
  mice died by 72 hr after cisplatin treatment: 1/6
[1]; nu/nu (T cell deficient) mice
  survival rate: 100%
[1]; nu/nu mice with T cells transfer, cisplatin 40 mg/kg
  survival: 80%
[1]; nu/nu mice, cisplatin 40 mg/kg i.p.
  mice dead by 72 hr after injection: 0/12
[1]; wild type littermates of CD4-/- and CD8-/- mice, cisplatin 40 mg/kg i.p.
  survival: 50%
[1]; wild type littermates of CD4/CD8 deficient mice, cisplatin 40 mg/kg i.p.
  mice died by 72 hr after cisplatin treatment: 7/12
[1]; wild type littermates of nu/nu mice, cisplatin 40 mg/kg i.p.
  mice dead by 72 hr after injection: 6/14
[2]; nu/nu mice compared with wild type mice
  increase in renal MPO activity: significantly blunted
[2]; wild type and nu/nu mice, vs individual saline controls
  renal MPO activities: significant increase
patients
  patients who developed renal dysfunction: 25-30%
Mice kidneys; nu/nu mice
  renal tubular injury score: 0.22±0.08
Mice kidneys; wild type mice
  renal tubular injury score: 1.44±0.15
[3]; CD4-/- mice, 24 hr post cisplatin 40 mg/kg i.p.
  SCr: 0.50 ± 0.07 mg/dL
[3]; CD8-/- mice, 24 hr post cisplatin 40 mg/kg i.p.
  SCr: 0.67 ± 0.08 mg/dL
[3]; nu/nu mice alone, 72 hr after cisplatin 40 mg/kg
  serum creatinine: 0.58 ± 0.06 mg/dL
[3]; nu/nu mice transferred with T cells, 72 hr after cisplatin 40 mg/kg
  serum creatinine: 1.23 ± 0.11 mg/dL
[3]; nu/nu mice, 24 hr after cisplatin 40 mg/kg
  serum creatinine: 0.60 ± 0.05 mg/dL
[3]; nu/nu mice, 48 hr after cisplatin 40 mg/kg
  serum creatinine: 0.56 ± 0.05 mg/dL
[3]; wild type mice, 24 hr after cisplatin 40 mg/kg (nu/nu study)
  serum creatinine: 1.05 ± 0.11 mg/dL
[3]; wild type mice, 24 hr post cisplatin 40 mg/kg i.p. (CD4/CD8 study)
  SCr: 1.74 ± 0.25 mg/dL
[3]; wild type mice, 48 hr after cisplatin 40 mg/kg
  serum creatinine: 2.09 ± 0.49 mg/dL
[3]; wild type mice, 72 hr after cisplatin 40 mg/kg
  serum creatinine: 3.61 ± 0.32 mg/dL
[4]; as early as 1 hr post cisplatin, vs saline
  CD3 positive cells in the kidney: markedly increased
[4]; single dose of cisplatin, declined by 24 hr
  time of peak of kidney T cell increase: 12 h
[5]; nu/nu mice treated with cisplatin compared to wild type mice
  expression of pro-inflammatory molecules (IL-1β, KC, TNF-α) in the kidney: reduced expression
[5]; wild type and nu/nu mice, any time point (24 hr, 72 hr) after cisplatin
  renal IFN-γ protein levels: no increase
[5]; [6]
  renal IL-1β protein level: 53.43±2.61 pg/mg protein
  renal KC protein level: 338.30±27.04 pg/mg protein
  renal TNF-α protein level: 707.40±66.28 pg/mg protein
